Measurements: publication PMC12670426 (Journal of Medicinal Chemistry, 2025)

What was measured:
[1] = Plasma stability assay, human plasma; format: in vitro ADME; settings: pooled plasma, 37 °C
Protocol: (§1) Test compounds (10 μM) were incubated with mouse, rat, or human pooled plasma from 50 donors (Biowest) at 37 °C for 20, 60, and 120 min. Reactions were terminated by adding four volumes of ice-cold methanol, followed by vigorous mixing. Samples were kept at −20 °C for 30 min and then stored at 4 °C overnight. The next day, samples were centrifuged, and supernatants were diluted with four volumes of 30% methanol in water. Zero time points were prepared by adding ice-cold methanol to the compound prior to the addition of plasma. Samples were then analyzed on an Echo MS system (SCIEX) using multiple reaction monitoring (MRM). The only exception was compound 3af, which was analyzed by LC–MS/MS (SCIEX 6500 triple quadrupole) due to its weak ionization in Echo-MS.

[2] = Cytotoxicity assay, HEK293; format: cell-based; settings: human, HEK293 cells, viability dye, flow cytometry
Protocol: (§2) To evaluate in vitro cytotoxicity and support its potential application in inflammatory and fibrotic disease models, the following panel of cell lines, representing the relevant biological systems, was used: HEK293, HepG2, THP1, Jurkat E6.1, and LX2. HEK293, HepG2, and Jurkat E6.1 cells were seeded at 400,000 cells/mL, THP1 cells at 500,000 cells/mL, and LX2 cells at 200,000 cells/mL in 96-well plates (cell culture-treated, VWR) in 100 μL/well. Cells were treated with the tested compounds in a serial dilution (300, 100, 33.3, 11.1, and 3.7 μM) for 24 h. Untreated cells served as negative controls to establish the baseline viability threshold. Cell viability was assessed using a viability dye (Zombie Violet Fixable Viability Kit, BioLegend) following the manufacturer’s instructions and analyzed by flow cytometry (see below).
(§3) Cells or beads from screening assays prepared for flow cytometry were analyzed by the CytoFlex S instrument (Beckman Coulter). Data acquisition was performed using CytExpert software (v2.5, Beckman Coulter). Debris was excluded by forward and side scatter gating, followed by doublet exclusion. Data were analyzed using FlowJo software (v10, BD Biosciences).

Gal-3C = settings: read-out: Kd (Gal-3C); previously reported inhibitor, Figure 1A; ref Galecto Biotech; cited from earlier work
Gal-1 = settings: previously reported inhibitor, Figure 1A; ref Galecto Biotech; cited from earlier work
[3] = Microsomal stability assay, rat liver microsomes; format: in vitro ADME; settings: pooled liver microsomes, pH 7.4, rat liver microsomes 0.5 mg/mL, NADPH
Protocol: (§4) Microsomal stability was determined using 0.5 mg/mL of pooled human, mouse, or rat liver microsomes (Thermo Fisher Scientific) in 90 mM TRIS-Cl buffer (pH 7.4) containing 2 mM NADPH and 2 mM MgCl2. Test compounds (10 μM) were added, and the resulting mixture was incubated at 37 °C for 10, 60, 120, and 180 min. The reactions were terminated by the addition of four volumes of ice-cold methanol, followed by vigorous mixing. The samples were left at −20 °C for 30 min and then stored at 4 °C overnight. The next day, samples were centrifuged, and supernatants were diluted with four volumes of 30% methanol in water. Zero time points were prepared by adding ice-cold methanol to the mixture of compounds and cofactors prior to the addition of microsomes. The samples were then analyzed using the Echo-MS system (SCIEX) with MRM transition monitoring, except for compound 3af, which was analyzed by LC–MS/MS as described in the plasma stability assay.

Cytotoxicity assay, LX2 = format: cell-based; settings: human, LX2 cells, viability dye, flow cytometry
Protocol: as §2, §3

[4] = Cytotoxicity assay, Jurkat E6.1; format: cell-based; settings: human, Jurkat E6.1 cells, viability dye, flow cytometry
Protocol: as §2, §3

[5] = Cytotoxicity assay, HepG2; format: cell-based; settings: human, HepG2 cells, viability dye, flow cytometry
Protocol: as §2, §3

[6] = Microsomal stability assay, mouse liver microsomes; format: in vitro ADME; settings: pooled liver microsomes, pH 7.4, mouse liver microsomes 0.5 mg/mL, NADPH
Protocol: as §4

[7] = tested on: LPS-stimulated macrophage-like THP1 cells (TNFα secretion); assay: Anti-inflammatory potential: TNFα secretion in LPS-stimulated PMA-differentiated THP1 cells; format: cell-based, human; settings: (+)PMA THP1, 1 μg/mL LPS, 24 h, up to 300 μM
Protocol: Cells were differentiated overnight into macrophage-like phenotypes by treatment with 10 ng/mL PMA and subsequently stimulated with 1 μg/mL lipopolysaccharide (LPS; Invitrogen, Thermo Fisher Scientific) to induce a proinflammatory response. […] After 24 h of LPS and compound exposure, cell culture supernatants were collected and analyzed for TNFα levels using a bead-based multiplex immunoassay (ProcartaPlex Human Basic Kit and TNFα Human ProcartaPlex Simplex Kit, both Invitrogen, Thermo Fisher Scientific). Flow cytometry readout was used as previously described. TNFα concentrations were calculated using a standard curve generated in GraphPad Prism 10 (GraphPad Software, San Diego, CA). Cells or beads from screening assays prepared for flow cytometry were analyzed by the CytoFlex S instrument (Beckman Coulter). Data acquisition was performed using CytExpert software (v2.5, Beckman Coulter). Debris was excluded by forward and side scatter gating, followed by doublet exclusion. Data were analyzed using FlowJo software (v10, BD Biosciences).

Cytotoxicity assay, THP1 = format: cell-based; settings: human, THP1 cells, viability dye, flow cytometry
Protocol: as §2, §3

[8] = Plasma stability assay, mouse plasma; format: in vitro ADME; settings: 37 °C
Protocol: as §1

[9] = target: T1, intracellular Gal-3 in THP1 cells (Homo sapiens, UniProt P17931); assay: Intracellular Gal-3 target engagement in THP1 cells (flow cytometry, MFI); format: cell-based; settings: 2 h
T1 construct: Untreated cells served as negative and baseline controls representing maximum intracellular Gal-3 levels; endogenous in cells; host or cells: THP1 (monocyte-like or PMA-differentiated macrophage-like)
Protocol: THP1 cells were used to assess the binding of the tested compounds to Gal-3. Cells were either maintained in suspension as undifferentiated monocyte-like cells or differentiated into macrophage-like cells by overnight treatment with phorbol 12-myristate 13-acetate (PMA, Sigma-Aldrich) at a final concentration of 10 ng/mL. […] Untreated cells served as negative and baseline controls representing maximum intracellular Gal-3 levels. Cells were then harvested and intracellularly stained either with galectin-3 monoclonal antibody eF660 (Invitrogen, Thermo Fisher Scientific) or a relevant isotype antibody (Invitrogen, Thermo Fisher Scientific) for flow cytometric analyses (see below). A dose-dependent decrease in Gal-3 signal upon compound treatment was used to assess intracellular target engagement expressed as median fluorescent intensity (MFI).
as §3

[10] = Plasma stability assay, rat plasma; format: in vitro ADME; settings: 37 °C
Protocol: as §1

[11] = Microsomal stability assay, human liver microsomes; format: in vitro ADME; settings: pooled liver microsomes, pH 7.4, human liver microsomes 0.5 mg/mL, NADPH
Protocol: as §4

[12] = Cytotoxicity assay, panel of five human cell lines; format: cell-based; settings: HEK293, HepG2, THP-1, Jurkat E6.1 and LX2 cells; summary in text across panel of five human cell lines
Protocol: as §2, §3

T1 sequence (P17931 whole entry): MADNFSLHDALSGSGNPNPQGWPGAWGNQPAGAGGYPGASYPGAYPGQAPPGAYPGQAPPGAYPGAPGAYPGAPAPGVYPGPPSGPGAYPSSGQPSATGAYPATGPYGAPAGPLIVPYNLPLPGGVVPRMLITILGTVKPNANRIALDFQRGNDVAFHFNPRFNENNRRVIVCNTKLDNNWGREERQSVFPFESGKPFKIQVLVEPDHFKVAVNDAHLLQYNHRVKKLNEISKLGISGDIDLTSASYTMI

In the case of `OC[C@H]1O[C@@H](S[C@@H]2O[C@H](CO)[C@H](O)[C@H](n3cc(-c4cccc(F)c4)nn3)[C@H]2O)[C@H](O)[C@@H](n2cc(-c3cccc(F)c3)nn2)[C@H]1O` [GB0139, reference compound], the remaining at 2 h, 10 μM [1] is listed as 110 ± 5%, the CC50 at 24 h [2] is listed as greater than 300 µM and the Kd (Gal-3C) is listed as 0.014 µM. For the same compound, the Kd (Gal-1) was 0.012 µM, the microsomal CLint at 10 μM [3] was less than 2 µL/min/mg and the CC50 at 24 h (Cytotoxicity assay, LX2) was greater than 300 µM. For the same compound, the CC50 at 24 h [4] was greater than 300 µM, the CC50 at 24 h [5] was greater than 300 µM and the microsomal CLint at 10 μM [6] was 6 ± 5 µL/min/mg. The “LPS-induced TNFα secretion” value [7] was “effectively reduced TNFα secretion”, the CC50 at 24 h (Cytotoxicity assay, THP1) was greater than 300 µM and the remaining at 2 h, 10 μM [8] was 68 ± 3%. The “intracellular Gal-3 signal (MFI), macrophage-like THP1 cells” value ([9]; (+)PMA differentiated THP1, 3.7–300 μM) was “reduced the Gal-3 signal”, the “intracellular Gal-3 signal (MFI), monocyte-like THP1 cells” value ([9]; (−)PMA undifferentiated THP1, 3.7–300 μM) was “minimal effect” and the remaining at 2 h, 10 μM [10] was 78 ± 8%. For the same compound, the microsomal CLint at 10 μM [11] was 12 ± 6 µL/min/mg and the CC50 at 24 h [12] was greater than 300 µM.
